Reference: ChEMBL document CHEMBL1201862, “PubChem BioAssay data set” (2004)
Active and inactive are the calls of the source.

Legend:
Protein Wnt-3a = Protein Wnt-3a (Mus musculus, UniProt P27467); test: Wnt3a-driven reporter signaling inhibition, dose response, selectivity assay for Gli-SUFU antagonist project, Wnt-LIGHT cells, luminescence (AID 651570); format: functional; conditions: read-out: IC50_Mean;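 note: Wnt-LIGHT reporter cells stimulated with conditioned medium from Wnt3a-producing cells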
Protein Wnt-3a, sequence (P27467 whole entry): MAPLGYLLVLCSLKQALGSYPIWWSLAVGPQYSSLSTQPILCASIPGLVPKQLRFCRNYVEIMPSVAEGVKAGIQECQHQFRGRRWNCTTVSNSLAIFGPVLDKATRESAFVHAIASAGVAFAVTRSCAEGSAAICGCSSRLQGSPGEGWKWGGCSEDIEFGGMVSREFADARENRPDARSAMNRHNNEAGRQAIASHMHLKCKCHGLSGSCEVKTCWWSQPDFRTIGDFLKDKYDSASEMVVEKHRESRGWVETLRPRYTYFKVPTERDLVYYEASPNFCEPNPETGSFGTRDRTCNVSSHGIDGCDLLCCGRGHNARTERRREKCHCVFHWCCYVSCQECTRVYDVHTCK

Cysteine protease ATG4B = target: T1, Cysteine protease ATG4B (Homo sapiens, UniProt Q9Y4P1); format: functional;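 note: Fluorescence-based dose-response confirmation assay measuring inhibition of ATG4B activity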
T1 sequence (Q9Y4P1 whole entry): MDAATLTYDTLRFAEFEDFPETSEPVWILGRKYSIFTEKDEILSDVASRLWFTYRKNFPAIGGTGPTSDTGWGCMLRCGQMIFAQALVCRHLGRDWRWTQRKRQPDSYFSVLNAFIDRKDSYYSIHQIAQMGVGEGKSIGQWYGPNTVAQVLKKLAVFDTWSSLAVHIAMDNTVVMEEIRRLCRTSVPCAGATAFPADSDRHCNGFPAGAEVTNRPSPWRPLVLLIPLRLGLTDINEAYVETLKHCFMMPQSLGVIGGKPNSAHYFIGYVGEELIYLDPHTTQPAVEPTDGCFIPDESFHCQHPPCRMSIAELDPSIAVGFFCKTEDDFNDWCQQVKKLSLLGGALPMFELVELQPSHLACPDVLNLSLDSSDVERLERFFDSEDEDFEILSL

Phospholipase A2 = Phospholipase A2 (Homo sapiens, UniProt P04054); format: functional;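 note: confirmatory dose-response counterscreen on phospholipase A2, testing hits that came from an ultra-high-throughput screen for ATG4B inhibitors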
Phospholipase A2, sequence (P04054 whole entry): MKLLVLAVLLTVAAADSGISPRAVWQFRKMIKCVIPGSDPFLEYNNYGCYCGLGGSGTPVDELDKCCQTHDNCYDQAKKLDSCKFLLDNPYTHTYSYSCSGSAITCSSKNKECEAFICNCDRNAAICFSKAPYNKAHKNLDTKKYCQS

[1] = Luminescence Cell-Based Dose Response HTS to Identify Activators of Luciferase Translation or Activity in H4 […] Cells. [Related pubchem assays: 1829 (Project Summary), 1814 (Primary HTS)]; format: functional
H4 = test: Luminescence Cell-Based Dose Response HTS to Identify Activators of 5'UTR Stem-Loop Driven Prion Protein mRNA Translation in H4 Neuroglioblastoma Cells. [Related pubchem assays: 1829 (Project Summary), 1814 (Primary HTS)]; format: functional; conditions: Homo sapiens
Caspase-3 [2] = target: T2, Caspase-3 (Homo sapiens, UniProt P42574); format: functional
T2 sequence (P42574 whole entry): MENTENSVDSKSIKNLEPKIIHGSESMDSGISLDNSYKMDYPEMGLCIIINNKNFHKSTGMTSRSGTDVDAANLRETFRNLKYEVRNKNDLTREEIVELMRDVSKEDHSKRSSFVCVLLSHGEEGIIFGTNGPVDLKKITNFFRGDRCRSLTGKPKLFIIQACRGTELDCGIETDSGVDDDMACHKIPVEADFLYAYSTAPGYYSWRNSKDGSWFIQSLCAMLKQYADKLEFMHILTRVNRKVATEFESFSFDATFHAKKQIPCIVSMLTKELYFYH

[3] = target: T3, Sentrin-specific protease 7 (Homo sapiens, UniProt Q9BQF6); format: functional;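 note: Luminescence-based dose-response confirmation of ultra-high-throughput screening hits, measuring inhibition of SENP7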
T3 sequence (Q9BQF6 whole entry): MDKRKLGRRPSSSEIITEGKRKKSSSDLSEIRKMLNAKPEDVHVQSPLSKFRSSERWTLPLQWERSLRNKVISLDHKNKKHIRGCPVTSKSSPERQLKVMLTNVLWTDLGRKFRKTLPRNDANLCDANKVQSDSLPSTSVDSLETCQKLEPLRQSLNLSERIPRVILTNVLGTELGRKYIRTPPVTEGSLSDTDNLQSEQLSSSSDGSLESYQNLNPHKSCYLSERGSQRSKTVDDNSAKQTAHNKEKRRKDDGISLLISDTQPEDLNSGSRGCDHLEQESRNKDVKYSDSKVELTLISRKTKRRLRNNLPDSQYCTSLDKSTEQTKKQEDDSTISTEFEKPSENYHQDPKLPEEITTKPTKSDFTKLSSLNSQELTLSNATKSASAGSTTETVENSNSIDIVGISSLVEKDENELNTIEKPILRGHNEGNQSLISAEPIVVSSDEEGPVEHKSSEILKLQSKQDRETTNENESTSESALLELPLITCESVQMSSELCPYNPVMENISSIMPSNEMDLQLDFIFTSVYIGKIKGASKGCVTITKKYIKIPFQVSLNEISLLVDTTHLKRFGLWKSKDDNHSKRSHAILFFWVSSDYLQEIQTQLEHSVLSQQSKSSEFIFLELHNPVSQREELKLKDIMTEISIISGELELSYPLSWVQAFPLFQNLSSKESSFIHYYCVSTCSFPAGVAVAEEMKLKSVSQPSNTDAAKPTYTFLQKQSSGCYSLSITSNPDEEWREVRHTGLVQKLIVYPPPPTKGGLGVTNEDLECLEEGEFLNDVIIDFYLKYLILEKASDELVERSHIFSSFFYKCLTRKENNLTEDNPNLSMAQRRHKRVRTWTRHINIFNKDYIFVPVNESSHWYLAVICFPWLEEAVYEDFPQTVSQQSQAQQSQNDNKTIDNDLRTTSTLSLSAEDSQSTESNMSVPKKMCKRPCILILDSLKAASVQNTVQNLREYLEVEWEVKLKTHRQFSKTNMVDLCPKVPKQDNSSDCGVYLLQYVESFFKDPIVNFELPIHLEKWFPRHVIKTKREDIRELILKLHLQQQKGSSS

[4] = target: T4, Sentrin-specific protease 6 (Homo sapiens, UniProt Q9GZR1); format: functional;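 note: Luminescence-based dose-response confirmatory assay of SENP6 inhibition, following up an ultra-high-throughput screen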
T4 sequence (Q9GZR1 whole entry): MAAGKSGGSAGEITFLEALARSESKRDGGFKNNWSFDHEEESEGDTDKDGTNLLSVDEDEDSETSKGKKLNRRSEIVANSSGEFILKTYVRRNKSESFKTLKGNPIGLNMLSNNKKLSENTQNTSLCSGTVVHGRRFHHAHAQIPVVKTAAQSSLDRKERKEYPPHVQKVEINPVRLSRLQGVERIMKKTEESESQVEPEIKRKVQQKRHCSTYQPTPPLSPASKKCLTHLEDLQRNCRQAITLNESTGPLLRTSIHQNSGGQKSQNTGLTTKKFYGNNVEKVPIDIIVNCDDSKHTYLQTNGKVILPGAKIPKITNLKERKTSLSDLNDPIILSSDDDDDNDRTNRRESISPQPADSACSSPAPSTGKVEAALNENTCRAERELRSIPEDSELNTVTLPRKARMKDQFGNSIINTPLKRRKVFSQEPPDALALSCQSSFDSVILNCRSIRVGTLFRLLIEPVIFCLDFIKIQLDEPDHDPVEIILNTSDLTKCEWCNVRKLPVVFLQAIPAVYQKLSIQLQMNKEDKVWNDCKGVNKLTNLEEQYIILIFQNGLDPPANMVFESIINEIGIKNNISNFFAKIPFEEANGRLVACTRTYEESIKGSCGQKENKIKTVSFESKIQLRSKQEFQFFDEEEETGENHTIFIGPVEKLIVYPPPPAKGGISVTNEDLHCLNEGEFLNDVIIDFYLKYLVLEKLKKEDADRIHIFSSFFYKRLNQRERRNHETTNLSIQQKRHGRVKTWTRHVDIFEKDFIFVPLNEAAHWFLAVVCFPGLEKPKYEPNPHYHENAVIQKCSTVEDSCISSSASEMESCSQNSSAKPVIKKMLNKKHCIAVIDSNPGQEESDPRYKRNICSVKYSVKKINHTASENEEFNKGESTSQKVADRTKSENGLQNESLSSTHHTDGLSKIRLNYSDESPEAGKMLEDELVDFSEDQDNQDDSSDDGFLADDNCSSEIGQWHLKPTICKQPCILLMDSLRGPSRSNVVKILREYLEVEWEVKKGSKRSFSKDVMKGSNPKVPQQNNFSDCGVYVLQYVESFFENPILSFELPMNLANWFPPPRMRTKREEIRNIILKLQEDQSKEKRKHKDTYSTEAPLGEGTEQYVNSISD

[5] = target: T5, Sentrin-specific protease 8 (Homo sapiens, UniProt Q96LD8); format: functional
T5 sequence (Q96LD8 whole entry): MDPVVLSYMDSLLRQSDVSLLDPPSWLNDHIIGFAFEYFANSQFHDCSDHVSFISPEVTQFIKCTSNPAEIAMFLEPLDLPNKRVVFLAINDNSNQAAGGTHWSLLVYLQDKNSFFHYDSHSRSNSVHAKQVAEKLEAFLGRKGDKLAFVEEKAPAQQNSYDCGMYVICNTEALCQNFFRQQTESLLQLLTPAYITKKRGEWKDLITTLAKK

[6] = target: Nuclear receptor subfamily 5 group A member 2 (Homo sapiens, UniProt O00482); format: functional, cell-based;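 note: HEK293T cells transfected with LRH-1 and a StAR promoter luciferase reporter; potency for inhibitors that lower LRH-1 driven reporter light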
Nuclear receptor subfamily 5 group A member 2, sequence (O00482 whole entry): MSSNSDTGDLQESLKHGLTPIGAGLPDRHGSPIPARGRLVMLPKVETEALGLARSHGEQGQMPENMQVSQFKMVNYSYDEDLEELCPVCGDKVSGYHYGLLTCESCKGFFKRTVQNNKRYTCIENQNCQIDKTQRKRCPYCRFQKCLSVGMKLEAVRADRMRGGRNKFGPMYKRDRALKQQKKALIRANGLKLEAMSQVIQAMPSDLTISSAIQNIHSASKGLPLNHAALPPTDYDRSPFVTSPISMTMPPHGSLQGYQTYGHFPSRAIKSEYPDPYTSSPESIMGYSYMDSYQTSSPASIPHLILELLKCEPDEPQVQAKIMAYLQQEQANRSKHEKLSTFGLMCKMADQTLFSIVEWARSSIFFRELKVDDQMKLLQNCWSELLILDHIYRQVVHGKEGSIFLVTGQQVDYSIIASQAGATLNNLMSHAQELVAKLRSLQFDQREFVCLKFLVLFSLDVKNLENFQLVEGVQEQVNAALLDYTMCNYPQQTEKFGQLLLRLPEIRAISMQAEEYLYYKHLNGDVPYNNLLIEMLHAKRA

Steroidogenic factor 1 = Steroidogenic factor 1 (Homo sapiens, UniProt Q13285); test: Counterscreen for inverse agonists of the liver receptor homolog-1 (LRH-1; NR5A2): Luminescence-based cell-based high throughput dose response assay to identify inverse agonists of the Steroidogenic Factor 1 Nuclear Receptor (SF1; NR5A1).; format: functional
Steroidogenic factor 1, sequence (Q13285 whole entry): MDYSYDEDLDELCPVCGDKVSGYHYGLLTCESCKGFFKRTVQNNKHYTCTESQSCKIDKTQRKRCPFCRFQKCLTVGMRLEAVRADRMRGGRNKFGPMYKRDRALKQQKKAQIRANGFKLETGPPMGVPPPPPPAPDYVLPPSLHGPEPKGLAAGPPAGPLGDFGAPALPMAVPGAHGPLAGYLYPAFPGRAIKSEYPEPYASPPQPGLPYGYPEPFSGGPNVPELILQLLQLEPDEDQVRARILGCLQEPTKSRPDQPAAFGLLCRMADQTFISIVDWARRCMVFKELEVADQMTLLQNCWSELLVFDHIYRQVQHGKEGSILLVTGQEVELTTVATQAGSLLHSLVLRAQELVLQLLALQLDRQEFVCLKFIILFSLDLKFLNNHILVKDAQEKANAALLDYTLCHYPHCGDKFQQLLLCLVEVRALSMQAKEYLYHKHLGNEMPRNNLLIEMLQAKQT

[7] = StAR promoter reporter inhibition counter-screen, dose response, counter-screen for LRH-1 inverse agonist project, cell-based, luminescence, luciferase reporter (AID 651969); format: functional
[8] = target: T5, Sentrin-specific protease 8; format: functional; remark: listed apart in the source
[9] = target: T5, Sentrin-specific protease 8; format: functional; remark: listed apart in the source
Caspase-3 [10] = target: T2, Caspase-3; test: Dose-response confirmation of uHTS inhibitor hits of Sentrin-Specific Protease 8 in a Caspase-3 Fluorescence assay.; format: functional

Clc1ccc(-c2c[n+](-c3ccccc3)c3n2CCS3)cc1
IC50 (Protein Wnt-3a): 22.5 µM (inactive)

CC/C=C\C/C=C\C/C=C\CCCCCCCC(=O)O [LINOLENIC ACID]
IC50 (Cysteine protease ATG4B): 15.3 µM (active)
IC50 (Phospholipase A2): 22.3 µM (inactive)

Clc1nnc(N/N=C/c2ccccc2)c2ccccc12
EC50 [1]: 0.694 µM (active)
EC50 (H4): 5.27 µM (active)
IC50 (Caspase-3 [2]): 6.38 µM (active)
IC50 [3]: 2.83 µM (active)
IC50 [4]: 5.57 µM (active)
IC50 [5]: 8.2 µM (active)

Cc1c(NC(=S)NC(=O)c2ccc(Cl)cc2)c(=O)n(-c2ccccc2)n1C
IC50 [6]: 12 µM (inactive)
IC50 (Steroidogenic factor 1): 35.9 µM (inactive)
IC50 [7]: 35.9 µM (inactive)

COC(=O)c1ccc(NC(=O)CN2CCN(c3ccc(Cl)cc3)CC2)cc1
IC50 [6]: 35.9 µM (inactive)
IC50 (Steroidogenic factor 1): 30.7 µM (inactive)
IC50 [7]: 35.9 µM (inactive)

O=C1CC(N2CCOCC2)=NN1c1ccc([N+](=O)[O-])cc1
IC50 [8]: 11.7 µM (active)
IC50 [9]: 24.6 µM (active)
IC50 (Caspase-3 [10]): 100 µM (inactive)
